inhibition, IC50 and remaining activity data for twelve compounds are collected here from article PMC12004523, “Integrated Virtual Screening Approach Identifies New CYP19A1 Inhibitors” (Journal of Chemical Information and Modeling, 2025).

The structures appear in SMILES notation.

The target of test [1] is T1, human CYP19A1 (aromatase) (Homo sapiens, UniProt P11511).
T1 sequence (P11511 1-503): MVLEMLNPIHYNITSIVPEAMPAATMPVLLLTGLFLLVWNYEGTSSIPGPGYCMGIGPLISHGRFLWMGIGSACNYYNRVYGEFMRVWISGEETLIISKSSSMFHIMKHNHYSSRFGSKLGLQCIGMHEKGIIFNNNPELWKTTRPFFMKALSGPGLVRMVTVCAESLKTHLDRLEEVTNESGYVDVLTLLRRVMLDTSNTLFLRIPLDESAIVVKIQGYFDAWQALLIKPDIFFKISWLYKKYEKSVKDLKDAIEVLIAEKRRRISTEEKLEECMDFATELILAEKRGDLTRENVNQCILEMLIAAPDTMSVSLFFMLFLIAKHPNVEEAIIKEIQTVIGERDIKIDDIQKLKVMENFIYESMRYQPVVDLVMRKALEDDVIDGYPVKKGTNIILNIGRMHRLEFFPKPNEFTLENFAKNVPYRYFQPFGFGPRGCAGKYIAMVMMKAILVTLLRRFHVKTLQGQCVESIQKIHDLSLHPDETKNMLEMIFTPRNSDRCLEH
T1 sequence (P16435 2-677 partner): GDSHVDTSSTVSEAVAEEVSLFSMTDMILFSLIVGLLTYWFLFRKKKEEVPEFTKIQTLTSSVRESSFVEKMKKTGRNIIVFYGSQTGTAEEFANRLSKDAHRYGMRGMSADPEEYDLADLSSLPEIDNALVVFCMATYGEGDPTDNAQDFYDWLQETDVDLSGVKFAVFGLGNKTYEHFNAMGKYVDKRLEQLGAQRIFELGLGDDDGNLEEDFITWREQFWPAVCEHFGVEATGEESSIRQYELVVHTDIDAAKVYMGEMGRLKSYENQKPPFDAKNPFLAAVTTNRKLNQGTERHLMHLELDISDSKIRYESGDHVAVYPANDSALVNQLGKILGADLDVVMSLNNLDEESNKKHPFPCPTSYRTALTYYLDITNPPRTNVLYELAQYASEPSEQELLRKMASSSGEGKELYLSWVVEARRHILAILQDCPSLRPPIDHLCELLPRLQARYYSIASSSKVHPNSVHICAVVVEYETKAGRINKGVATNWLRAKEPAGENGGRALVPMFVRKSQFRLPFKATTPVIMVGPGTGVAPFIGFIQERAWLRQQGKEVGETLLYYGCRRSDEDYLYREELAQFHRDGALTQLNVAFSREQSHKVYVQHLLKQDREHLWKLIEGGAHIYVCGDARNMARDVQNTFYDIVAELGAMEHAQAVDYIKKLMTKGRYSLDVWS
Description: cell-based. Set-up: Yeast expressing human CYP19A1/CPR converts testosterone; estradiol in supernatant read by yeast biosensor, flow cytometry. Conditions: for inhibition at 10 µM: read-out: % inhibition (10 μM); for inhibition at 1 µM: read-out: % inhibition (1 μM). The protocol:
A 14-h precultivation period ensured that the aromatase catalytic capacity remained consistent across all independent experiments and the inhibitor cannot act on P450 expression levels. The initial OD600 was diluted to 0.04, and then the yeast culture’s OD600 was measured and adjusted to 2.00 with fresh SDC medium. One mL of yeast solution (OD600 = 2.00) was poured into the wells of a 48-well deep-well cell culture plate (Axygen P-5 ML-48-C). Subsequently, 1 mL of SDC medium containing 120 nM testosterone and either 10 μM or 1 μM of the inhibitor was added to each well containing the yeast solution. The mixture was incubated at 30 °C and 240 rpm for 2 h. After incubation, 1.5 mL of the mixture from each well was transferred to 2 mL tubes and centrifuged at 16,000 rpm to pellet the yeast cells. Then, 1.2 mL of the supernatant was moved to 1.5 mL tubes and labeled according to the inhibitor concentration. For each sample, 1 mL of the supernatant was transferred to a different well of a 48-well deep-well plate. Next, 980 μL of SDC medium and 20 μL of the precultured byMM1984 biosensor cell solution (OD600 adjusted to 5.00 after 14 h of preculture) were added to each well. Finally, flow cytometry was performed as previously described. The entire assay was repeated in three independent experiments to calculate the mean values. […] Initially, these inhibitors were applied at a final concentration of 10 μM. […] In addition, 9a lacks a Cl atom and 9b lacks a keto group in comparison to 9. […] Several factors were considered to avoid assay artifacts.[46] The biosensor gene circuit used in this study is orthogonal to the yeast chassis,[47] ensuring no interference between the biosensor and the yeast host, thus preventing false positives.

Test [2] deals with T1, human CYP19A1 (aromatase). As to the kind of experiment: aromatase inhibition in yeast expressing human CYP19A1 and CPR, estradiol biosensor (yEGFP, flow cytometry). The format is cell-based. (In general: A flow cytometer gives signals particle by particle.)
The target in test [3] is T1, human CYP19A1 (aromatase). As to the kind of experiment: cell-based. Also on record: Whole-yeast human CYP19A1/CPR testosterone aromatization; estradiol quantified by yeast biosensor fluorescence, flow cytometry, per cent of control. The following applies: Saccharomyces cerevisiae byMM1712; 1 uM inhibitor, testosterone substrate; read-out: % of control remaining. The protocol: Initially, these inhibitors were applied at a final concentration of 10 μM. […] In addition, 9a lacks a Cl atom and 9b lacks a keto group in comparison to 9. […] (a) Illustration of the enzymatic assay based on heterologous expression of human CYP19A1 used for testing candidate CYP19A1 inhibitors. […] Data are presented as mean ± SEM (n = 3).

The term inhibition denotes how much of the control response was suppressed. What is called IC50 is the concentration that inhibits the measured activity by half. A lower IC50 goes with inhibition by little substance.

As for `O=c1cc(Cn2ccnc2)c2cc(O)c(-c3ccccc3)cc2o1` [compound 10], the inhibition at 10 µM in test [1] is 38.1%.
On the same count and under the same terms, in the case of `CSc1ccc2nc(N3CC(Cn4ccnc4)C3)sc2c1` [compound 2] it was 30.9%; in that of `COc1ccc(-c2cn3cccnc3n2)cc1NC(=O)Nc1ccc(F)cc1` [compound 7], 25.6%.
In test [2], `CC1(c2ccc(Cl)cc2Cl)OCC(Cn2cncn2)O1` (stereo not shown) [compound 8, 8] yielded an IC50 of 1130 ± 158 nM.
On to `CC(NC(=O)c1cc2cc(Cl)ccc2oc1=O)c1ccc(-n2ccnc2)cc1` (stereo not shown) [compound 9], for which, in test [1], the inhibition at 1 µM came out at 89.7% and the inhibition at 10 µM amounted to 96.7%.
In the case of `CC1(c2ccc(Cl)cc2Cl)OCC(Cn2cncn2)O1` (stereo not shown) [compound 8], in test [1], the inhibition at 1 µM worked out at 44.3% and the inhibition at 10 µM worked out at 81.7%. For the same compound, the remaining activity at 1 µM in test [3] was 57 ± 7%.
For the compound `O=C(NCc1ccc(-n2ccnc2)cc1)C1=Cc2cc(Cl)ccc2OC1` [9b], the IC50 in test [2] is 1250 ± 190 nM. In test [1], the inhibition at 1 µM was found to be 43.8% and the inhibition at 10 µM stood at 85%. Moreover, in test [3], the remaining activity at 1 µM stood at 58 ± 1%.
As to `O=C(NCc1ccc(-n2ccnc2)cc1)c1cc2ccccc2oc1=O` [9a], the IC50 in test [2] was found to be 1040 ± 63 nM. In test [1], the inhibition at 1 µM is 51.9% and the inhibition at 10 µM amounted to 87.4%. Also, the remaining activity at 1 µM in test [3] stood at 50 ± 1%.
On to `O=C(Nc1cccc(-c2cn3cccnc3n2)c1)c1ccc(Cl)cc1Cl` [compound 1], for which the inhibition at 10 µM in test [1] was 25.9%.
Same read-out and setting: in the case of `N#Cc1ccc(C(c2ccc(C#N)cc2)n2cncn2)cc1` [letrozole] it was 80.4%.
For `O=C(Cc1c(F)cccc1Cl)N1CCC(Cn2ccnc2)CC1` [compound 4], the inhibition at 10 µM in test [1] is 22.8%.
The compound `CC(NC(=O)c1cc2cc(Cl)ccc2oc1=O)c1ccc(-n2ccnc2)cc1` (racemic) [compound 9, N-(1-(4-(1H-imidazol-1-yl)phenyl)ethyl)-6-chloro-2-oxo-2H-chromene-3-carboxamide] had an IC50 in test [2] of 271 ± 51 nM. The remaining activity at 1 µM in test [3] turned out to be 13 ± 2%.
